Experimental data taken from the NIST ThermoML archive (doi:10.1021/je0201323).

Assays:
[1] = for surface tension liquid-gas: Pendant drop shape; for mass density: 101.3 kPa, Liquid, vibrating tube
[2] = xn = mol fraction of the nth substance listed; conditions: x1 = 1; for mass density: 101.3 kPa, Liquid, vibrating tube; for surface tension liquid-gas: Pendant drop shape

CC(C)=O [acetone]
[1]
Conditions | surface tension liquid-gas [mN/m]
287.81 K | 23.94
297.82 K | 22.78
307.86 K | 21.59
317.86 K | 20.33
327.88 K | 19.01

Cc1ccccc1 [toluene]
[1]
Conditions | mass density [kg/m3] | surface tension liquid-gas [mN/m]
277.85 K | – | 30.11
278.15 K | 880.3 | –
283.15 K | 875.9 | –
287.81 K | – | 28.93
288.15 K | 871.4 | –
293.15 K | 866.9 | –
297.82 K | – | 27.76
298.15 K | 862.4 | –
302.83 K | – | 27.17
303.15 K | 857.8 | –
307.86 K | – | 26.6
308.15 K | 853.2 | –
312.87 K | – | 26.03
313.15 K | 848.6 | –
317.86 K | – | 25.46
318.15 K | 843.9 | –
323.15 K | 839.2 | –
327.88 K | – | 24.29
328.15 K | 834.5 | –
333.15 K | 829.8 | –
337.88 K | – | 23.22

CCCCCCC [heptane] + Cc1ccccc1
[2]
Conditions | mass density [kg/m3] | surface tension liquid-gas [mN/m]
278.15 K | 696.3 | –
283.15 K | 692.2 | –
287.81 K | – | 20.7
288.15 K | 688 | –
293.15 K | 683.8 | –
297.82 K | – | 19.63
298.15 K | 679.5 | –
303.15 K | 675.2 | –
307.86 K | – | 18.68
308.15 K | 670.9 | –
313.15 K | 666.5 | –
317.86 K | – | 17.76
318.15 K | 662.1 | –
323.15 K | 657.7 | –
327.88 K | – | 16.68
328.15 K | 653.2 | –
333.15 K | 648.7 | –

CN(C)C=O [dimethylformamide]
[1]
Conditions | mass density [kg/m3] | surface tension liquid-gas [mN/m]
277.85 K | – | 38.16
278.15 K | 963 | –
283.15 K | 958.3 | –
287.81 K | – | 36.96
288.15 K | 953.7 | –
293.15 K | 949.1 | –
297.82 K | – | 35.83
298.15 K | 944.5 | –
303.15 K | 939.9 | –
307.86 K | – | 34.65
308.15 K | 935.4 | –
313.15 K | 930.9 | –
317.86 K | – | 33.37
318.15 K | 926.3 | –
323.15 K | 921.7 | –
327.88 K | – | 32.03
327.89 K | – | 32.03
328.15 K | 917.9 | –
333.15 K | 913.2 | –

CCCCCCC [heptane]
[1]
Conditions | mass density [kg/m3] | surface tension liquid-gas [mN/m]
277.93 K | – | 21.73
278.15 K | 696.3 | –
282.83 K | – | 21.18
283.15 K | 692.2 | –
287.81 K | – | 20.7
288.15 K | 688 | –
292.81 K | – | 20.17
293.15 K | 683.8 | –
297.82 K | – | 19.63
298.15 K | 679.5 | –
302.83 K | – | 19.15
303.15 K | 675.2 | –
307.86 K | – | 18.68
308.15 K | 670.9 | –
312.86 K | – | 18.17
313.15 K | 666.5 | –
317.86 K | – | 17.76
318.15 K | 662.1 | –
322.86 K | – | 17.22
323.15 K | 657.7 | –
327.88 K | – | 16.68
328.15 K | 653.2 | –
332.91 K | – | 16.21
333.15 K | 648.7 | –
337.88 K | – | 15.79
342.92 K | – | 15.29

CN1CCCC1=O [N-methylpyrrolidone]
[1]
Conditions | surface tension liquid-gas [mN/m]
277.84 K | 42.61
287.8 K | 41.35
297.81 K | 40.25
307.85 K | 39.1
317.85 K | 37.91
327.89 K | 36.8
337.88 K | 35.66

C1CCCCC1 [cyclohexane]
[1]
Conditions | surface tension liquid-gas [mN/m]
279.33 K | 26.37
282.82 K | 25.99
287.81 K | 25.34
297.82 K | 24.2
307.86 K | 23.02
317.86 K | 21.84
327.88 K | 20.71
337.93 K | 19.57

Cc1ccccc1 [toluene] + CN(C)C=O
[2]
Conditions | mass density [kg/m3] | surface tension liquid-gas [mN/m]
278.15 K | 880.3 | –
283.15 K | 875.9 | –
287.81 K | – | 28.93
288.15 K | 871.4 | –
293.15 K | 866.9 | –
297.82 K | – | 27.76
298.15 K | 862.4 | –
303.15 K | 857.8 | –
307.86 K | – | 26.6
308.15 K | 853.2 | –
313.15 K | 848.6 | –
317.86 K | – | 25.46
318.15 K | 843.9 | –
323.15 K | 839.2 | –
327.88 K | – | 24.29
328.15 K | 834.5 | –
333.15 K | 829.8 | –
